According to publication PMC7408607, “A Multiple N-Glucosylated Peptide Epitope Efficiently Detecting Antibodies in Multiple Sclerosis” (Brain Sciences, 2020):
Read-outs that look alike come from different tables or passages of the source. Residues, ends and D or L forms follow the SMILES beside them. *: point of attachment. NH(β-D-Glc) = OC[C@H]1O[C@@H](N*)[C@H](O)[C@@H](O)[C@@H]1O

System: anti-CSF114(Glc) IgG antibodies from MS patients' serum
Test: Competitive (inhibition) ELISA on plates coated with CSF114(Glc)
Assay type: binding, human
Settings: for Log1/IC50 ± Std Error: Table S4, shortened peptides versus CSF114(Glc), one representative positive MS serum
Experimental: Washing steps were executed with an automatic Hydroflex microplate washer (Tecan Italia, Milano, Italy). After five washes with washing buffer containing 0.9% NaCl and 0.05% Tween 20, nonspecific binding sites were blocked with 100 μL per well fetal calf serum (FCS) buffer solution (10% in washing buffer) at room temperature for 60 min.
Antibody affinity was measured following the inhibition methods reported elsewhere. Semi-saturating sera dilution was calculated in preliminary titration curves (absorbance 0.7). Six different concentrations of each synthetic antigenic peptide probe were used as inhibitors. Then, sera samples at the selected dilution were incubated in parallel with increasing concentrations of the synthetic shortened peptide sequences (range 1 × 10^−10 to 1 × 10^−4) for 60 min at room temperature. All inhibition experiments were performed in duplicate or triplicate for each single MS patient’s serum positive to CSF114(Glc) separately. All experiments were repeated at least twice on two different working days.
After three washes, uninhibited antibodies were identified by adding 100 µL/well of alkaline phosphatase-conjugated anti-human immunoglobulin G (IgG, Sigma-Aldrich, Milano, Italy) diluted 1:8000 in washing buffer containing 10% FCS. The microplates were then incubated 3 h at room temperature and, after three washes, 100 µL of substrate solution consisting of 1 mg/mL p-nitrophenyl phosphate (Sigma-Aldrich, Milano, Italy) in 10% diethanolamine buffer (pH 9.8) were added. After approximately 30 min, the reaction was stopped with 1M NaOH solution (50 µL/well), and the absorbance was read in a multichannel ELISA reader (Tecan Sunrise, Männedorf, Switzerland) at 405 nm. The selected ELISA microplates, coating conditions, reagent dilutions, buffers, and incubation times were previously tested. The relationship between peptide concentrations and the absorbance values was represented graphically in absorbance inhibition percentage, and half-maximal response concentration values (IC50) were calculated.

[1] = Table S5, tri- and pentapeptides 9-22 and CSF114(Glc), representative MS serum (Figure 3)
[2] = Table S5, tri- and pentapeptides 9-22 and CSF114(Glc), representative MS serum (Figure 3), CI 95% in brackets, read-out: IC50(M)[CI95%]
[3] = serum MS1 (Figure S2A), one of three MS positive sera tested in parallel, read-out: IC50
[4] = serum MS3 (Figure S2C), read-out: IC50
[5] = shortened CSF114(Glc) series (Figure 2, Table S4), one representative positive MS patient's serum, inhibitor 1 × 10^−10 to 1 × 10^−4, absorbance 405 nm, non-linear regression least squares fit, read-out: IC50

SMILES | Log1/IC50 ± StdError [1] | further results
CC(=O)N[C@@H](CCC(=O)O)C(=O)N[C@@H](CCCNC(=N)N)C(=O)N[C@@H](CC(=O)N[C@@H]1O[C@H](CO)[C@@H](O)[C@H](O)[C@H]1O)C(=O)NCC(=O)N[C@@H](Cc1c[nH]cn1)C(N)=O [Ac-ERN(Glc)GH-NH2(20), Ac-ERN(Glc)GH-NH2] (Ac-ERD(NH(β-D-Glc))GH-NH2) | 5.95 ± 0.112 | 
CC(=O)N[C@@H](CCC(=O)O)C(=O)N[C@@H](CCCNC(=N)N)C(=O)N[C@@H](CC(=O)N[C@@H]1O[C@H](CO)[C@@H](O)[C@H](O)[C@H]1O)C(=O)NCC(=O)N[C@@H](CO)C(N)=O [Ac-ERN(Glc)GS-NH2(16), Ac-ERN(Glc)GS-NH2] (Ac-ERD(NH(β-D-Glc))GS-NH2) | 5.677 ± 0.1444 | 
CC(=O)N[C@@H](CCC(=O)O)C(=O)N[C@@H](CCCNC(=N)N)C(=O)N[C@@H](CC(=O)N[C@@H]1O[C@H](CO)[C@@H](O)[C@H](O)[C@H]1O)C(=O)NCC(=O)N[C@H](C(N)=O)[C@@H](C)O [Ac-ERN(Glc)GT-NH2(17), Ac-ERN(Glc)GT-NH2] (Ac-ERD(NH(β-D-Glc))GT-NH2) | 6.23 ± 0.14 | 
CC(=O)N[C@@H](CCC(=O)O)C(=O)N[C@@H](CCCNC(=N)N)C(=O)N[C@@H](CC(=O)N[C@@H]1O[C@H](CO)[C@@H](O)[C@H](O)[C@H]1O)C(=O)N[C@@H](CCCCN)C(=O)N[C@@H](Cc1c[nH]cn1)C(N)=O [Ac-ERN(Glc)KH-NH2(21), Ac-ERN(Glc)KH-NH2] (Ac-ERD(NH(β-D-Glc))KH-NH2) | 5.98 ± 0.1482 | 
CC(=O)N[C@@H](CCC(=O)O)C(=O)N[C@@H](CCCNC(=N)N)C(=O)N[C@@H](CC(=O)N[C@@H]1O[C@H](CO)[C@@H](O)[C@H](O)[C@H]1O)C(=O)N[C@@H](CCCCN)C(=O)N[C@@H](CO)C(N)=O [Ac-ERN(Glc)KS-NH2(18), Ac-ERN(Glc)KS-NH2] (Ac-ERD(NH(β-D-Glc))KS-NH2) | 5.59 ± 0.19 | 
CC(=O)N[C@@H](CCCCN)C(=O)NCC(=O)N[C@@H](CC(=O)N[C@@H]1O[C@H](CO)[C@@H](O)[C@H](O)[C@H]1O)C(=O)N[C@@H](C)C(=O)N[C@H](C(N)=O)[C@@H](C)O [Ac-KGN(Glc)AT-NH2(22), Ac-KGN(Glc)AT-NH2] (Ac-KGD(NH(β-D-Glc))AT-NH2) | 6.22 ± 0.07 | 
CC(=O)N[C@@H](CC(=O)N[C@@H]1O[C@H](CO)[C@@H](O)[C@H](O)[C@H]1O)C(=O)N[C@@H](C)C(=O)N[C@H](C(N)=O)[C@@H](C)O [Ac-N(Glc)AT-NH2(15), Ac-N(Glc)AT-NH2] | 5.005 ± 0.05558 | IC50 [2]: 7e-06 M
CC(=O)N[C@@H](CC(=O)N[C@@H]1O[C@H](CO)[C@@H](O)[C@H](O)[C@H]1O)C(=O)NCC(=O)N[C@@H](Cc1c[nH]cn1)C(N)=O [Ac-N(Glc)GH-NH2(13), Ac-N(Glc)GH-NH2] | 5.226 ± 0.0433 | IC50 [2]: 6.94e-06 M
CC(=O)N[C@@H](CC(=O)N[C@@H]1O[C@H](CO)[C@@H](O)[C@H](O)[C@H]1O)C(=O)NCC(=O)N[C@@H](CO)C(N)=O [Ac-N(Glc)GS-NH2(9), Ac-N(Glc)GS-NH2] | 5.137 ± 0.063 | 
CC(=O)N[C@@H](CC(=O)N[C@@H]1O[C@H](CO)[C@@H](O)[C@H](O)[C@H]1O)C(=O)NCC(=O)N[C@H](C(N)=O)[C@@H](C)O [Ac-N(Glc)GT-NH2(10), Ac-N(Glc)GT-NH2] | 5.129 ± 0.1170 | 
CC(=O)N[C@@H](CC(=O)N[C@@H]1O[C@H](CO)[C@@H](O)[C@H](O)[C@H]1O)C(=O)N[C@@H](CCCCN)C(=O)N[C@@H](Cc1c[nH]cn1)C(N)=O [Ac-N(Glc)KH-NH2(14), Ac-N(Glc)KH-NH2] | 5.160 ± 0.01636 | 
CC(=O)N[C@@H](CC(=O)N[C@@H]1O[C@H](CO)[C@@H](O)[C@H](O)[C@H]1O)C(=O)N[C@@H](CCCCN)C(=O)N[C@@H](CO)C(N)=O [Ac-N(Glc)KS-NH2(11), Ac-N(Glc)KS-NH2] | 5.942 ± 0.1911 | 
CC(=O)N[C@@H](CC(=O)N[C@@H]1O[C@H](CO)[C@@H](O)[C@H](O)[C@H]1O)C(=O)N[C@@H](CCCCN)C(=O)N[C@H](C(N)=O)[C@@H](C)O [Ac-N(Glc)KT-NH2(12), Ac-N(Glc)KT-NH2] | 6.010 ± 0.06024 | 
CSCC[C@H](NC(=O)[C@H](Cc1c[nH]c2ccccc12)NC(=O)CNC(=O)[C@H](Cc1ccc(O)cc1)NC(=O)[C@@H]1CCCN1C(=O)[C@H](C)NC(=O)[C@H](CC(C)C)NC(=O)[C@H](Cc1ccccc1)NC(=O)[C@@H](NC(=O)[C@H](CO)NC(=O)[C@H](Cc1c[nH]cn1)NC(=O)CNC(=O)[C@H](CC(=O)N[C@@H]1O[C@H](CO)[C@@H](O)[C@H](O)[C@H]1O)NC(=O)[C@H](CCCNC(=N)N)NC(=O)[C@H](CCC(=O)O)NC(=O)[C@@H](NC(=O)[C@H](CCCNC(=N)N)NC(=O)[C@@H]1CCCN1C(=O)[C@@H](N)[C@@H](C)O)C(C)C)C(C)C)C(=O)N[C@H](C(=O)N[C@@H](CCCCN)C(=O)O)C(C)C [CSF114(Glc) (1), CSF114(Glc), reference compound] | 6.46 ± 0.083 | Log1/IC50 ± Std Error: 6.14 ± 0.083; IC50 [3]: 5.2e-07 M; IC50 [4]: 5.12e-09 M; IC50 [5]: 9e-09 M
CC(=O)N[C@@H](CC(=O)N[C@@H]1O[C@H](CO)[C@@H](O)[C@H](O)[C@H]1O)C(=O)NCCCOCCOCCOCCCNC(=O)CCC(=O)NCCCC[C@H](NC(=O)CCC(=O)NCCCOCCOCCOCCCNC(=O)[C@H](CC(=O)N[C@@H]1O[C@H](CO)[C@@H](O)[C@H](O)[C@H]1O)NC(C)=O)C(=O)NCCCC[C@H](NC(=O)[C@H](CCCCNC(=O)CCC(=O)NCCCOCCOCCOCCCNC(=O)[C@H](CC(=O)N[C@@H]1O[C@H](CO)[C@@H](O)[C@H](O)[C@H]1O)NC(C)=O)NC(=O)CCC(=O)NCCCOCCOCCOCCCNC(=O)[C@H](CC(=O)N[C@@H]1O[C@H](CO)[C@@H](O)[C@H](O)[C@H]1O)NC(C)=O)C(=O)NCCC(=O)O [N-Glc MEP (24)] |  | IC50 [3]: 2.15e-08 M; IC50 [4]: 2.15e-08 M
CC(=O)N[C@H](C(=O)N[C@@H](CCC(=O)O)C(=O)N[C@@H](CCCNC(=N)N)C(=O)N[C@@H](CC(=O)N[C@@H]1O[C@H](CO)[C@@H](O)[C@H](O)[C@H]1O)C(=O)NCC(=O)N[C@@H](Cc1c[nH]cn1)C(=O)N[C@@H](CO)C(=O)N[C@H](C(N)=O)C(C)C)C(C)C [[Asn7(Glc)]CSF114(4‒11) (6), [Asn^7(Glc)] CSF114(4–11)] (Ac-VERD(NH(β-D-Glc))GHSV-NH2) |  | Log1/IC50 ± Std Error: 6.2 ± 0.29
CC(=O)N[C@@H](CCC(=O)O)C(=O)N[C@@H](CCCNC(=N)N)C(=O)N[C@@H](CC(=O)N[C@@H]1O[C@H](CO)[C@@H](O)[C@H](O)[C@H]1O)C(=O)NCC(=O)N[C@@H](Cc1c[nH]cn1)C(=O)N[C@@H](CO)C(N)=O [[Asn7(Glc)]CSF114(5‒10) (7), [Asn^7(Glc)] CSF114(5–10)] (Ac-ERD(NH(β-D-Glc))GHS-NH2) |  | Log1/IC50 ± Std Error: 5.4 ± 0.10; IC50 [5]: 3.5e-06 M
CC(=O)N[C@@H](CCCNC(=N)N)C(=O)N[C@@H](CC(=O)N[C@@H]1O[C@H](CO)[C@@H](O)[C@H](O)[C@H]1O)C(=O)NCC(=O)N[C@@H](Cc1c[nH]cn1)C(N)=O [[Asn7(Glc)]CSF114(6‒9) (8), [Asn^7(Glc)] CSF114(6–9)] (Ac-RD(NH(β-D-Glc))GH-NH2) |  | Log1/IC50 ± Std Error: 5.7 ± 0.25
